According to article PMC5045374 (Oncotarget, 2016):

Key:
[1] = test system: ALK-positive NSCLC; conditions: cited from earlier work
[2] = test system: CLB-BAR cells; assay: Xenograft neuroblastoma model in vivo; design: species or system BalbC/NUDE mice
Description: In the first investigation mice (n=3) were employed and in the second investigation mice (n=5) were employed. […] In the second investigation where 5 mice were employed a subset of mice (n=2) were released from treatment after 14 days, for a further 8 days (blue curve). […] C. […] Data are means +/− SE from 8 tumours, p values indicated; Student's t test.
Female Balbc/nude mice (Charles River, Germany) at 5-6 weeks age were maintained in a pathogen-free environment. For xenografts, 2.5 million CLB-BAR cells (MYCN amplified, ALK (Δ4-11) amplified) were injected subcutaneously. Once tumor volume achieved about 50mm^3, drug was given at 50 mg/kg body weight, by oral gavage, once daily, continuously for 14 days. Mice were grouped by tumor volume randomly. Tumor volume was calculated with the following equation: V=0.5236×L×W^2 (V=volume, L=longest, W=width).
Mice were sacrificed and tumors were collected. Tumors were fixed in 4% PFA, followed by 15% and 30% sucrose in PBS. Tumors were embedded in OCT compound (VWR chemicals) and frozen at −80°C. […] Secondary antibodies (Cell Signaling Tech., Danver, MA) were applied for 2 hours at room temperature. Impact DAB (Vector Laboratories, SK 4105) was employed for staining followed by hematoxylin cross-staining (Sigma-Aldrich). After mounting sections, images were taken using an Axio zoom V16 stereo microscope (Zeiss).

[3] = test system: ALK mutants; assay: Neurite outgrowth assay in PC12 cells, ALK mutants; format: cell-based, human
Procedure: PC12 cells (2 x10^6) co-transfected, in 100 μl of Ingenio electroporation solution (Minus Bio LCC), with pEGFPN1 (Clonetech) (0.5 ng) and ALK-mutant (0.75 ng) or ALK-wt (0.75 ng) as indicated were seeded sparingly into 24-well plates. ALK-wild type was stimulated with 1 μg/ml mAb31. After 48 hours post transfection, the fraction of GFP-positive and neurite carrying cells versus GFP-positive cells were analyzed under a Zeiss Axiovert 40 CFL microscope. A cell was considered as neurite-carrying if it had neurite(s) that reached at least twice the length of the diameter of a normal cell body. The experiments were performed at least three times in triplicates.

[4] = test system: CLB-GE (ALK-F1174V, ALK addicted) neuroblastoma cells; assay: Proliferation assay (resazurin cell viability), CLB-GE; format: cell-based; conditions: Homo sapiens, 72 hours, read-out: IC50 (cell growth)
Procedure: (§1) Cells were seeded at 15,000 per well with serial dilutions of the indicated inhibitors. After 72 hours cell viability was assessed by resazurin (Sigma, Sweden). IC50 values were calculated with GraphPad Prism 6.0 by fitting data to a log (inhibitor concentration) vs. normalized response (variable slope) equation. Each experiment was performed in duplicate and repeated at least three times.

[5] = test system: IMR32 (ALK-WT, non-ALK addicted) neuroblastoma cells; assay: Proliferation assay (resazurin cell viability), IMR32; format: cell-based, human; conditions: IMR32, 72 hours
Procedure: as §1

[6] = inferred from CNS responses in NSCLC patients; cited from earlier work
[7] = test system: CLB-PE (ALK-WT, non-ALK addicted) neuroblastoma cells; assay: Proliferation assay (resazurin cell viability), CLB-PE; format: cell-based, human; conditions: 72 hours
Procedure: as §1

[8] = test system: CLB-BAR (ALK-Δ4-11, ALK addicted) neuroblastoma cells; assay: Proliferation assay (resazurin cell viability), CLB-BAR; format: cell-based; conditions: Homo sapiens, 72 hours, read-out: IC50 (cell growth)
Procedure: as §1

[9] = test system: neuroblastoma tumor growth; conditions: orthotopic xenograft tumor growth and TH-ALKF1174L/TH-MYCN mouse model; cited from earlier work
[10] = immunoblotting, vs control group

COc1cc(N2CCC(N3CCN(C)CC3)CC2)ccc1Nc1ncc(Cl)c(Nc2ccccc2P(C)(C)=O)n1 [brigatinib]
patients with non-measureable CNS lesions with disappearance of all lesions ([1]; 8/26 patients): 31%
patients responding to treatment ([1]; crizotinib refractory ALK-positive NSCLC patients): about 72%
response in patients with baseline CNS metastases ([1]; radiological review, 6/12 patients): 50%
tumor weight ([2]; 50 mg/kg once daily oral gavage, 14 days, vs controls, p=0.01): significantly reduced
tumor volume / tumor growth ([2]; 50 mg/kg once daily oral gavage, 14 days, vs vehicle, p=0.0004): considerably inhibits proliferation of tumor growth
side effect in vivo ([2]; 50 mg/kg once daily, 14 days): no obvious side effect
body weight of mice ([2]; 50 mg/kg once daily, 14 days, p=0.9): did not show any variation
MYCN protein levels in tumor material [2, 10]: decreased protein levels
phospho-ALK levels in tumor material [2, 10]: decreased phospho-ALK levels
phosphorylated ERK5 and AKT in tumor material [2, 10]: reduced phosphorylation
total ALK protein levels in tumor material [2, 10]: No obvious change
tumor volume/growth after discontinuation of treatment ([2]; treatment discontinued after 14 days, for 8 days, n=2): increase in tumor volume/growth
Ki-67 proliferation marker in excised tumor ([2]; vs controls, p=0.0005): significantly reduced proliferation
block of neurite outgrowth compared with crizotinib ([3]; ALK-G1269A, ALK-R1275 and ALK-R1192P, brigatinib 15 and 30 nM vs crizotinib 250 nM): more efficiently than crizotinib
neurite outgrowth of all tested ALK mutants ([3]; PC12 cells, 48 hours): could abrogate neurite outgrowth
IC50 [4]: 100 ± 17.5 nM
inhibition of cell growth [5]: Neither brigatinib nor crizotinib was able to inhibit growth
blood-brain barrier penetration [6]: able to penetrate the blood-brain barrier
inhibition of cell growth [7]: Neither brigatinib nor crizotinib was able to inhibit growth
IC50 [8]: 75.3 ± 8.89 nM

C[C@@H](Oc1cc(-c2cnn(C3CCNCC3)c2)cnc1N)c1c(Cl)ccc(F)c1Cl [crizotinib]
efficacy as a single agent treatment [9]: limited efficacy
